Values after ≈ are worked out from the molar mass of the structure shown.
Experiments:
[1] = Non Patent Literature 4; cited from earlier work
[2] = system: sweet potato root-knot nematodes; assay: Nematode Control Test Example 1: emulsions mixed with infested soil, cherry tomato pot test; format: in vivo; details: for Aerial part weight / Root-knot parasitism level: cherry tomato, after six weeks, sprayed liquid 10 ppm, concentration in soil 0.3 ppm; for Aerial part weight: mixed with soil; for nematode control effect (in words): concentration of active ingredient in the soil of 0.3 ppm; for Root-knot parasitism level: scale 0-4, mean
Description: Each of abamectin 7.5% emulsion from NO. […] One liter of Pleistocene volcanic ash soil in which sweet potato root-knot nematodes had proliferated (the mean of initial sweet potato root-knot nematode density in the fourth-repeated cultivations: 235 nematodes/20 g of soil) was placed in a polyethylene bag and 30 ml of 10 ppm liquid of each chemical agent was mixed therewith while sprayed. The soil mixed with the chemical agent was filled in a pot with a surface area of 162 cm^2. A group where 1 L of soil was mixed and treated with 200 mg of a commercially available organophosphorus-based nematocide fosthiazate 1.5% granule (Ishihara Nemathorin Ace granule, a product from Ishihara Sangyo Kaisha, Ltd.) as a control chemical agent and a group with no treatment were set up. After the treatment with the chemical agent, three stocks of cherry tomato (variety Regina nursery plant with three true leaves, a product from Takii seed Co., Ltcd.) were planted. The test was repeated twice and cultivation management was conducted in a greenhouse. After six weeks, the weight of aerial parts and root-knot parasitism level were investigated.
(§1) In the test below, evaluation criteria for the root-knot parasitism level are as follows:
(§2) The evaluation was conducted using additional intermediate levels of 0.5 between each parasitism levels below at the investigation.
(§3) Parasitism level 0: No root-knots are noted at all.
(§4) Parasitism level 1: The formation of root-knots is noted in not more than 25% of the root.
(§5) Parasitism level 2: The formation of root-knots is noted in more than 25% and not more than 50% of the root.
(§6) Parasitism level 3: The formation of root-knots is noted in more than 50% and not more than 75% of the root.
(§7) Parasitism level 4: The formation of root-knots is noted in more than 75% of the root.

[3] = system: sweet potato root-knot nematodes; assay: Nematode Control Test Example 2: abamectin and moxidectin emulsions, pot test; format: in vivo; details: for Aerial part weight: cherry tomato; for Aerial part weight / Root-knot parasitism level: after eight weeks; for Root-knot parasitism level: scale 0-4, mean
Description: as §1, §2, §3, §4, §5, §6, §7
Abamectin 7.5% emulsion from NO. 3 in Formulation Example 1 and moxidectin 7.5% emulsion from NO. 38 in Formulation Example 3 were prepared by diluting with tap water (water hardness about 70) at a concentration of active ingredient of 5 ppm, 10 ppm, and 20 ppm. One liter of Pleistocene volcanic ash soil in which sweet potato root-knot nematodes had proliferated (initial sweet potato root-knot nematode density: the mean in fourth-repeated cultivations 260 nematodes/20 g of soil) was placed in a polyethylene bag and 30 ml of each of the above was mixed therewith while sprayed. The soil mixed with the chemical agent was filled in a pot with a surface area of 162 cm^2. A group where 1 L of soil was mixed and treated with 200 mg of a commercially available organophosphorus-based nematocide fosthiazate 1.5% granule as a control chemical agent and a group with no treatment were set up. After the treatment with the chemical agent, four stocks of cherry tomato (variety Regina nursery plant with four true leaves) were planted. The test was repeated twice and cultivation management was conducted in a greenhouse. After eight weeks, the weight of aerial parts and root-knot parasitism level were investigated.

[4] = cited from earlier work
[5] = sprayed liquid 5 ppm, concentration in soil 0.15 ppm
[6] = sprayed liquid 10 ppm, concentration in soil 0.3 ppm
[7] = sprayed liquid 20 ppm, concentration in soil 0.6 ppm

**Q.** With abamectin as the molecule, how does the “breakdown by soil microorganisms” value [1] read?
**A.** quickly broken down

**Q.** What about the soil adsorption [1] of the same molecule?
**A.** very high

**Q.** And the Aerial part weight [2]?
**A.** 3.7 g/stock

**Q.** And the “nematode control effect (in words)” value [2]?
**A.** apparent nematode control effect

**Q.** And the Root-knot parasitism level [2]?
**A.** 0.75

**Q.** And the Aerial part weight [3, 5]?
**A.** 55 g/stock

**Q.** What about the Aerial part weight [3, 6] of the same molecule?
**A.** 49 g/stock

**Q.** And the Aerial part weight [3, 7]?
**A.** 45 g/stock

**Q.** What about the “capability of controlling nematodes (in words)” value ([3]; comparison abamectin vs moxidectin, 0.15-0.6 ppm in soil) of the same molecule?
**A.** slightly better effect than moxidectin

**Q.** What about the Root-knot parasitism level [3, 5] of the same molecule?
**A.** 2.38

**Q.** And the Root-knot parasitism level [3, 6]?
**A.** 1.17

**Q.** And the Root-knot parasitism level [3, 7]?
**A.** 1.00

**Q.** Which Aerial part weight [2] does the source give for lepimectin here?
**A.** 3.1 g/stock

**Q.** What about the Root-knot parasitism level [2] of the same molecule?
**A.** 4.00

**Q.** Which results are given for `CO[C@H]1C[C@H](O[C@H]2[C@H](C)O[C@@H](O[C@@H]3/C(C)=C/C[C@@H]4C[C@@H](C[C@]5(C=C[C@H](C)[C@@H](C6CCCCC6)O5)O4)OC(=O)[C@@H]4C=C(C)[C@@H](O)[C@H]5OC/C(=C\C=C\[C@@H]3C)[C@]54O)C[C@@H]2OC)O[C@@H](C)[C@@H]1O` [DOR, doramectin]?
**A.** Aerial part weight [2]: 3.8 g/stock; nematode control effect (in words) [2]: apparent nematode control effect; Root-knot parasitism level [2]: 0.58

**Q.** Which results are given for ivermectin?
**A.** Aerial part weight [2]: 3.7 g/stock; nematode control effect (in words) [2]: apparent nematode control effect; Root-knot parasitism level [2]: 0.83

**Q.** For `CNC(=O)O/N=C(\SC)C(=O)N(C)C` [oxamyl], which solubility to water [4] is on record?
**A.** 280 mg/mL (≈ 1280 mM)

**Q.** With `CC1=C[C@H]2C(=O)O[C@H]3C[C@@H](C/C=C(\C)C[C@@H](C)/C=C/C=C4\CO[C@H]([C@@H]1O)[C@@]42O)O[C@]1(C3)C[C@H](O)[C@H](C)[C@@H](/C(C)=C/C(C)C)O1` [NEM, nemadectin] as the molecule, how does the Aerial part weight [2] read?
**A.** 3.0 g/stock

**Q.** And the Root-knot parasitism level [2]?
**A.** 4.00

**Q.** With emamectin as the molecule, how does the Aerial part weight [2] read?
**A.** 3.3 g/stock

**Q.** And the “nematode control effect (in words)” value [2]?
**A.** apparently exhibited fewer effects

**Q.** And the Root-knot parasitism level [2]?
**A.** 3.92

**Q.** Which results are given for `CO/N=C1\C[C@]2(C[C@@H]3C[C@@H](C/C=C(\C)C[C@@H](C)/C=C/C=C4\CO[C@@H]5[C@H](O)C(C)=C[C@@H](C(=O)O3)[C@]45O)O2)O[C@H](/C(C)=C/C(C)C)[C@H]1C` [MOX, moxidectin]?
**A.** Aerial part weight [2]: 4.1 g/stock; Root-knot parasitism level [2]: 1.33; Aerial part weight [3, 5]: 44 g/stock; Aerial part weight [3, 6]: 54 g/stock; Aerial part weight [3, 7]: 42 g/stock; Root-knot parasitism level [3, 5]: 2.81; Root-knot parasitism level [3, 6]: 1.75; Root-knot parasitism level [3, 7]: 1.38

**Q.** What does the source list for `CO[C@H]1C[C@H](O[C@@H]2/C(C)=C/C[C@@H]3C[C@@H](C[C@]4(CC[C@H](C)[C@@H](C5CCCCC5)O4)O3)OC(=O)[C@@H]3C=C(C)/C(=N/O)[C@H]4OC/C(=C\C=C\[C@@H]2C)[C@]43O)O[C@@H](C)[C@@H]1O` [SEL, selamectin]?
**A.** Aerial part weight [2]: 2.6 g/stock; nematode control effect (in words) [2]: apparently exhibited fewer effects; Root-knot parasitism level [2]: 4.00

**Q.** For milbemectin, which Aerial part weight [2] is on record?
**A.** 2.5 g/stock

**Q.** And the Root-knot parasitism level [2]?
**A.** 4.00

**Q.** And the solubility to water [4]?
**A.** 0.00088 mg/mL
